Non-standard residues stand in square brackets, D forms with d. Residues, ends and D or L forms follow the SMILES beside them. *: point of attachment. Octanoyl = CCCCCCCC(=O)*
Key:
[1] = In vitro Colonic Material Stability Assay; type: in vitro ADME; settings: colonic material slurry, anaerobic, 1 or 10 μM, 24 h
Experimental: Assay 3 In vitro Colonic Material Stability Assay. This assay was used to assess the stability of an acylated active agent in a large intestine. All experiments were performed in an anaerobic chamber containing 90% nitrogen, 5% hydrogen and 5% carbon dioxide. Colonic material was resuspended as a slurry (15% w/v final concentration) in pre-reduced, anaerobically sterilized dilution blanks (Anaerobe Systems AS-908). The colonic material was then inoculated into 96 well plates containing YCFAC media (Anaerobe Systems AS-680) or other suitable media (6.7 μL slurry into 1 mL total media). Compounds or groups of compounds were added to each individual well to reach a final analyte concentration of 1 or 10 μM, and the material was mixed by pipetting. Sample was removed after set timepoints (0, 120, 240, 480, 1440, 2880 minutes after initiation of the assay), quenched with acetonitrile containing internal standard, and analyzed by LC/MS.

E. coli BL21(DE3) = assay: Cell-based assay with ClbP with LCMS, ClbP negative strain; settings: 10 μM compound, 37° C., 20 h
Experimental: (§1) This example is representative of the methods described in Example 97. ClbP was tested for its ability to activate compounds. […] Each of these three strains was struck out onto an appropriate solid media such as LB agar or BHI agar. The bacteria were then grown aerobically overnight at 37° C.
(§2) A single colony was isolated from the plate and inoculated into 10 mL LB. The liquid cultures were grown overnight aerobically at 37° C. with rocking on a nutator.
(§3) The saturated E. coli cultures were transferred into a biosafety cabinet. 5 μL of each culture was inoculated into fresh LB broth (200 μL total, 1:40 (v/v) dilution of the overnight culture), and the tested compound was added to a final concentration of 10 μM. To establish the native stability of the compound in media alone, the compound was also added to uninoculated media at a final concentration of 10 μM. Each compound was tested in duplicate with each strain or the media-alone incubation. The plate was sealed and incubated aerobically on a nutator at 37° C. for 20 h.
(§4) After 20 h, the reactions were stopped by addition of 200 μL acetonitrile. The contents of each well were mixed, and then the plate was centrifuged (4,000 rpm, 10 min). The plate was diluted serially to a final dilution of 1:100 first with Acetonitrile (10× dilution) and then with (4:1) Mobile Phase A-20 mM ammonium formate+water:Mobile Phase B-Isopropanol:Methanol:Water (4:4:2)+20 mM ammonium formate (10× dilution).
(§5) The amount of each remaining parent compound in each incubation was quantified by LC-MS analysis, with multiple-reaction monitoring targeting transitions specific to each parent compound.
(§6) The amount of compound present in the media-alone condition was normalized to 100%. The amount of parent compound present in the reaction with the ClbP-encoding E. coli (E. coli CFT073 ATCC 700928 and/or E. coli Nissle 1917) was compared to the amount present in the media-alone and expressed as a percent. Likewise, the amount of parent compound present in the reaction with the negative control E. coli BL21(DE3) was compared to the amount present in the media-alone and expressed as a percent.
(§7) In an ideal case, the amount of residual starting material in the reaction(s) with ClbP-encoding E. coli was <25% of the amount in the E. coli BL21(DE3) and media-alone conditions. In an acceptable case, the amount of residual starting material in the reaction(s) with ClbP-encoding E. coli was 25-75% of the amount in the E. coli BL21(DE3) and media-alone conditions. In a non-preferred case, the amount of residual starting material in the reaction(s) with ClbP-encoding E. coli was >75% of the amount in the E. coli BL21(DE3) and media-alone conditions.

[2] = tested on: E. coli CFT073 ATCC 700928 and/or E. coli Nissle 1917; assay: Cell-based assay with ClbP with LCMS, ClbP positive strain; settings: for % Remaining in ClbP Positve Relative to Media-Only: ClbP-encoding E. coli, 10 μM compound, 37° C., 20 h; for Difference between the ClbP Positive and ClbP Negative release profiles: conclusion from Table 4
Experimental: as §1, §2, §3, §4, §5, §6, §7

**Q.** Which results are given for COC(=O)[C@H](C)NC(=O)[C@@H](CC(N)=O)NC(=O)c1cn(C2CC2)c2cc(N3CCNCC3)c(F)cc2c1=O [Example 19, Methyl (1-cyclopropyl-6-fluoro-4-oxo-7-(piperazin-1-yl)-1,4-dihydroquinoline-3-carbonyl)-D-asparaginyl-L-alaninate]?
**A.** Assay 3 (% Remaining at 24 h) [1]: A (<25% of the tested compound remaining); % Remaining in ClbP Negative Relative to Media-Only (E. coli BL21(DE3)): − (>75% compound remaining in the 20 μM WT ClbP reaction relative to the no-enzyme control); % Remaining in ClbP Positve Relative to Media-Only [2]: + (between 25-75% compound remaining in the 20 μM WT ClbP reaction relative to the no-enzyme control)

**Q.** Which results are given for CCCCCCCCCCCCCC(=O)N[C@H](CC(N)=O)C(=O)N[C@@H](C)CNC(=O)OC [Example 23, Methyl ((S)-2-((R)-4-amino-4-oxo-2-tetradecanamidobutanamido)propyl)carbamate]?
**A.** % Remaining in ClbP Negative Relative to Media-Only (E. coli BL21(DE3)): − (>75% compound remaining in the 20 μM WT ClbP reaction relative to the no-enzyme control); % Remaining in ClbP Positve Relative to Media-Only [2]: + (between 25-75% compound remaining in the 20 μM WT ClbP reaction relative to the no-enzyme control)

**Q.** For CCCCCCCCCCCCCC(=O)N[C@H](CC(N)=O)C(=O)N[C@@H](C)CCC(=O)Oc1ccc2nc3c(c(CC)c2c1)Cn1c-3cc2c(c1=O)COC(=O)[C@]2(O)CC [Example 24, (S)-4,11-diethyl-4-hydroxy-3,14-dioxo-3,4,12,14-tetrahydro-1H-pyrano[3′,4′:6,7]indolizino[1,2-b]quinolin-9-yl (S)-4-((R)-4-amino-4-oxo-2-tetradecanamidobutanamido)pentanoate], which “% Remaining in ClbP Negative Relative to Media-Only” value (E. coli BL21(DE3)) is on record?
**A.** − (>75% compound remaining in the 20 μM WT ClbP reaction relative to the no-enzyme control)

**Q.** What about the “% Remaining in ClbP Positve Relative to Media-Only” value [2] of the same compound?
**A.** + (between 25-75% compound remaining in the 20 μM WT ClbP reaction relative to the no-enzyme control)

**Q.** For CCCCCCCCCCCCCC(=O)N[C@H](CC(N)=O)C(=O)NCCN(C)C(=O)OC [Example 30, Methyl (R)-(2-(4-amino-4-oxo-2-tetradecanamidobutanamido)ethyl)(methyl)carbamate], which “% Remaining in ClbP Negative Relative to Media-Only” value (E. coli BL21(DE3)) is on record?
**A.** − (>75% compound remaining in the 20 μM WT ClbP reaction relative to the no-enzyme control)

**Q.** And the “% Remaining in ClbP Positve Relative to Media-Only” value [2]?
**A.** + (between 25-75% compound remaining in the 20 μM WT ClbP reaction relative to the no-enzyme control)

**Q.** For CCCCCCCCCCCCCC(=O)N[C@H](CC(N)=O)C(=O)NCCN(C)C(=O)Oc1ccc(Br)cc1 [Example 31, 4-bromophenyl (R)-(2-(4-amino-4-oxo-2-tetradecanamidobutanamido)ethyl)(methyl)carbamate], which “% Remaining in ClbP Negative Relative to Media-Only” value (E. coli BL21(DE3)) is on record?
**A.** − (>75% compound remaining in the 20 μM WT ClbP reaction relative to the no-enzyme control)

**Q.** What about the “% Remaining in ClbP Positve Relative to Media-Only” value [2] of the same compound?
**A.** − (>75% compound remaining in the 20 μM WT ClbP reaction relative to the no-enzyme control)

**Q.** Which “% Remaining in ClbP Negative Relative to Media-Only” value (E. coli BL21(DE3)) does the source give for CCCCCCCC(=O)N[C@H](CC(N)=O)C(=O)NCCC(C)(C)C(=O)Oc1ccc2nc3c(c(CC)c2c1)Cn1c-3cc2c(c1=O)COC(=O)[C@]2(O)CC [Example 40, (S)-4,11-diethyl-4-hydroxy-3,14-dioxo-3,4,12,14-tetrahydro-1H-pyrano[3′,4′:6,7]indolizino[1,2-b]quinolin-9-yl 4-((R)-4-amino-2-octanamido-4-oxobutanamido)-2,2-dimethylbutanoate] here?
**A.** − (>75% compound remaining in the 20 μM WT ClbP reaction relative to the no-enzyme control)

**Q.** What about the “% Remaining in ClbP Positve Relative to Media-Only” value [2] of the same compound?
**A.** + (between 25-75% compound remaining in the 20 μM WT ClbP reaction relative to the no-enzyme control)

**Q.** With CCCCCCCC(=O)N[C@H](CC(N)=O)C(=O)N[C@@H](C)CCC(=O)OC [Example 42, Methyl (S)-4-((R)-4-amino-2-octanamido-4-oxobutanamido)pentanoate] as the compound, how does the “Assay 3 (% Remaining at 24 h)” value [1] read?
**A.** C (>75% of the tested compound remaining)

**Q.** And the “% Remaining in ClbP Negative Relative to Media-Only” value (E. coli BL21(DE3))?
**A.** − (>75% compound remaining in the 20 μM WT ClbP reaction relative to the no-enzyme control)

**Q.** What about the “% Remaining in ClbP Positve Relative to Media-Only” value [2] of the same compound?
**A.** − (>75% compound remaining in the 20 μM WT ClbP reaction relative to the no-enzyme control)

**Q.** With CCCCCCCC(=O)N[C@H](CC(N)=O)C(=O)Nc1ccc(COC)cc1 [Example 44, (R)—N1-(4-(methoxymethyl)phenyl)-2-octanamidosuccinamide] as the compound, how does the “% Remaining in ClbP Negative Relative to Media-Only” value (E. coli BL21(DE3)) read?
**A.** − (>75% compound remaining in the 20 μM WT ClbP reaction relative to the no-enzyme control)

**Q.** And the “% Remaining in ClbP Positve Relative to Media-Only” value [2]?
**A.** − (>75% compound remaining in the 20 μM WT ClbP reaction relative to the no-enzyme control)

**Q.** What does the source list for CCCCCCCC(=O)N[C@H](CC(N)=O)C(=O)NCCNC(=O)OC [Example 46, Methyl (R)-(2-(4-amino-2-octanamido-4-oxobutanamido)ethyl)carbamate]?
**A.** % Remaining in ClbP Negative Relative to Media-Only (E. coli BL21(DE3)): − (>75% compound remaining in the 20 μM WT ClbP reaction relative to the no-enzyme control); % Remaining in ClbP Positve Relative to Media-Only [2]: ++ (<25% compound remaining in the 20 μM WT ClbP reaction relative to the control); Difference between the ClbP Positive and ClbP Negative release profiles [2]: particularly favorable difference

**Q.** For CCCCCCCC(=O)N[C@H](CC(N)=O)C(=O)N[C@@H](C)CNC(=O)Oc1ccc(Br)cc1 [Example 48, 4-bromophenyl ((S)-2-((R)-4-amino-2-octanamido-4-oxobutanamido)propyl)carbamate], which “% Remaining in ClbP Negative Relative to Media-Only” value (E. coli BL21(DE3)) is on record?
**A.** + (between 25-75% compound remaining in the 20 μM WT ClbP reaction relative to the no-enzyme control)

**Q.** And the “% Remaining in ClbP Positve Relative to Media-Only” value [2]?
**A.** + (between 25-75% compound remaining in the 20 μM WT ClbP reaction relative to the no-enzyme control)

**Q.** With CCCCCCNC(=O)N[C@H](CC(N)=O)C(=O)N[C@@H](C)C(=O)OC [Example 53, Methyl (hexylcarbamoyl)-D-asparaginyl-L-alaninate] as the compound, how does the “% Remaining in ClbP Negative Relative to Media-Only” value (E. coli BL21(DE3)) read?
**A.** − (>75% compound remaining in the 20 μM WT ClbP reaction relative to the no-enzyme control)

**Q.** What about the “% Remaining in ClbP Positve Relative to Media-Only” value [2] of the same compound?
**A.** ++ (<25% compound remaining in the 20 μM WT ClbP reaction relative to the control)

**Q.** What about the “Difference between the ClbP Positive and ClbP Negative release profiles” value [2] of the same compound?
**A.** particularly favorable difference

**Q.** With CCCCCCCC(=O)N[C@H](Cc1c[nH]cn1)C(=O)N[C@@H](C)C(=O)OC [Example 54, Methyl octanoyl-D-histidyl-L-alaninate] (Octanoyl-[dH]-Ala-OMe) as the compound, how does the “% Remaining in ClbP Negative Relative to Media-Only” value (E. coli BL21(DE3)) read?
**A.** + (between 25-75% compound remaining in the 20 μM WT ClbP reaction relative to the no-enzyme control)

**Q.** What about the “% Remaining in ClbP Positve Relative to Media-Only” value [2] of the same compound?
**A.** + (between 25-75% compound remaining in the 20 μM WT ClbP reaction relative to the no-enzyme control)

**Q.** With CCCC(=O)N[C@H](CC(N)=O)C(=O)N[C@@H](C)CCC(=O)Oc1ccc2nc3c(c(CC)c2c1)Cn1c-3cc2c(c1=O)COC(=O)[C@]2(O)CC [Example 58, (S)-4,11-diethyl-4-hydroxy-3,14-dioxo-3,4,12,14-tetrahydro-1H-pyrano[3′,4′:6,7]indolizino[1,2-b]quinolin-9-yl (S)-4-((R)-4-amino-2-butyramido-4-oxobutanamido)pentanoate] as the compound, how does the “% Remaining in ClbP Negative Relative to Media-Only” value (E. coli BL21(DE3)) read?
**A.** + (between 25-75% compound remaining in the 20 μM WT ClbP reaction relative to the no-enzyme control)

**Q.** And the “% Remaining in ClbP Positve Relative to Media-Only” value [2]?
**A.** ++ (<25% compound remaining in the 20 μM WT ClbP reaction relative to the control)

**Q.** With CCCCCCCC(=O)N[C@H](CC(N)=O)C(=O)NCCC(C)(C)C(=O)Oc1ccc2c(C)cc(=O)oc2c1 [Example 72A, 4-methyl-2-oxo-2H-chromen-7-yl (R)-4-(4-amino-2-octanamido-4-oxobutanamido)-2,2-dimethylbutanoate] as the compound, how does the “% Remaining in ClbP Negative Relative to Media-Only” value (E. coli BL21(DE3)) read?
**A.** + (between 25-75% compound remaining in the 20 μM WT ClbP reaction relative to the no-enzyme control)

**Q.** What about the “% Remaining in ClbP Positve Relative to Media-Only” value [2] of the same compound?
**A.** + (between 25-75% compound remaining in the 20 μM WT ClbP reaction relative to the no-enzyme control)

Source: patent publication US11998610B2, “Conjugates and methods of using the same” (Flagship Pioneering Innovations V, Inc., priority 2018, dated 2024)
